Test results published in patent US20110166078A1, “OLIGOSACCHARIDE COMPOUNDS FOR USE IN MOBILISING STEM CELLS” (ENDOTIS PHARMA, priority 2008, published 2011).
pIC50: −log10 of the molar value.

Experiments:
PDGF-β = PDGF-β (Homo sapiens, UniProt P01127); experiment: PDGF-β/heparin competition assay by SPR (Biacore); assay type: binding; details: 10 nM PDGF-β, biotinylated heparin, Sensorchip C1
Procedure: (§1) Heparin or low molecular weight heparin (6 kDa) from SIGMA were biotinylated at the reducing end and immobilized on a Biacore sensorchip. Different concentrations of the compounds of the present invention were co-incubated at a fixed concentration of targets: FGF-2, PDGF-β, VEGF-A or SDF-1α for 30 minutes. The mixture was then injected onto the streptavidin control (control reference) and HP surfaces. Only free growth factor (GF) or chemokine, i.e. the target molecules not bound to compounds of the present invention, were trapped on the heparin surface. From the binding of free targets on heparin, the percentages of inhibition were calculated and then reported in function of compound concentrations. The plot was fitted with a four-parameter model and IC50 was calculated. The 0% inhibition value was obtained for the injection of the studied target in running-buffer, and the 100% inhibition value was obtained for the injection of the studied target co-incubated with 10 μM of low molecular weight heparin 6 kDa. A PDGF-β/heparin competition assay using the Biacore technology was performed using the following conditions: 10 nM PDGF-β, biotinylated heparin, Reference Streptavidin, Sensorchip C1, HBS-P, Regeneration NaCl 2M. IC50 values of compounds of the present invention were determined using the Biacore technology for the growth factor and chemokine/heparin competition assays that contained the following proteins: VEGF-A, SDF-1α, FGF-2 and PDGF-β.

SDF-1α = SDF-1α (Homo sapiens, UniProt P48061); experiment: SDF-1α/heparin competition assay by SPR (Biacore); assay type: binding; details: 96 nM SDF-1α, biotinylated low molecular weight heparin (6 kDa), Sensorchip SA
Procedure: as §1, with “kDa.” for “kDa. A PDGF-β/heparin competition assay using the Biacore technology was performed using the following conditions: 10 nM PDGF-β, biotinylated heparin, Reference Streptavidin, Sensorchip C1, HBS-P, Regeneration NaCl 2M. IC50 values of compounds of the present invention were determined using the Biacore technology for the growth factor and chemokine/heparin competition assays that contained the following proteins: VEGF-A, SDF-1α, FGF-2 and PDGF-β.”
A SDF-1α/heparin competition assay using the Biacore technology was performed using the following conditions: 96 nM SDF-1α, biotinylated low molecular weight heparin (6 kDa), Reference Streptavidin, Sensorchip SA, HBS-P, Regeneration NaCl 2M
IC50 values of compounds of the present invention were determined using the Biacore technology for the growth factor and chemokine/heparin competition assays that contained the following proteins: VEGF-A, SDF-1α, FGF-2 and PDGF-β.

[1] = test system: FGF-2-induced NHDF (Normal Human Dermal Fibroblast) cell proliferation; experiment: FGF-2-induced NHDF proliferation assay; assay type: cell-based; details: compound 0.1 to 30 μM
Procedure: (§2) The activities of the compounds of the present invention were tested using a proliferation assay, such as the one described by N. Ali et al., J Pharmacol Sci, 2005, 98, 130-141. A defined number of cells is seeded in each well of a culture plate. In order to stimulate cell proliferation, a growth factor is added in some wells, while others remain unstimulated (basal proliferation conditions). To monitor the effects of substances of interest (oligosaccharides compounds according to the present invention) on basal and growth factor-induced cell proliferation, substances of interest are added at different concentrations (i.e. 0.1, 0.3, 1, 3, 10 or 30 μM) in presence or absence of the growth factor, respectively. After an incubation period of 24 hours, the total number of cells is estimated in all samples (generally through an indirect method, such as incorporation of radioactivity into the newly synthesised DNA or colorimetric assays based on cellular enzyme activities or metabolite production). The total number of cells for the control sample in which no substance of interest nor growth factor have been added is set to 1. The total number of cells in all the other samples is compared to this value in order to obtain the relative proliferation index.
Typically, cells are seeded in 48 or 96-well plates. After 2 h (i.e. the time required for cells to adhere to the support) the normal culture media is replaced by a minimal essential culture media in which cells are grown for 24 h (starvation period). This step is used to reduce cell growth (cell metabolism is slowed down in order to better visualise the growth factor stimulation effect) before adding an angiogenic protein, such as a growth factor i.e. FGF-2 or PDGF-β. No growth factor is added in basal proliferation conditions (independently of the presence or absence of the oligosaccharide of the present invention). […]
(§3) Following addition of the angiogenic protein (growth factor) over a 24 h stimulation period, a commercial reagent containing a substrate for a cellular enzyme is added and incubated for couple of hours. The degradation of the substrate by the enzyme leads to the production of a coloured product which is titrated by absorbance measurement. […]
In the following experiments the effects of compounds 240 and 241 (concentrations from 0.1 to 30 μM) were evaluated on FGF-2-induced NHDF (Normal Human Dermal Fibroblast) cell proliferation. […]

[2] = test system: PDGF-β-induced NHDF proliferation; experiment: PDGF-β-induced NHDF proliferation assay; assay type: cell-based, human; details: PDGF-β 10 ng/ml; FIGS. 8-12
Procedure: as §2
Typically, cells are seeded in 48 or 96-well plates. After 2 h (i.e. the time required for cells to adhere to the support) the normal culture media is replaced by a minimal essential culture media in which cells are grown for 24 h (starvation period). This step is used to reduce cell growth (cell metabolism is slowed down in order to better visualise the growth factor stimulation effect) before adding an angiogenic protein, such as a growth factor i.e. FGF-2 or PDGF-β. No growth factor is added in basal proliferation conditions (independently of the presence or absence of the oligosaccharide of the present invention). To evaluate the inhibition of the oligosaccharide compounds according to the present invention on cell proliferation, the angiogenic protein (growth factor) is added at a fixed concentration (from 5 ng/ml to 10 ng/ml) with increasing amounts of oligosaccharide compounds (0.1, 0.3, 1, 3, 10 or 30 μM), which allows the IC50 value to be estimated (i.e. the oligosaccharide concentration at which the stimulatory effect of the growth factor is inhibited by 50%).
as §3

| Compound | pIC50 (PDGF-β) | pIC50 (SDF-1α) | inhibition of FGF-2-induced fibroblast proliferation ([1]; FGF-2 5 ng/ml, FIGS. 6-7) | basal NHDF proliferation ([1]; control conditions, no growth factor) | inhibition of PDGF-β-induced NHDF proliferation [2] |
| --- | --- | --- | --- | --- | --- |
| C#CCCCOC1OC(COS(=O)(=O)[O-])C(OC2OC(C(=O)[O-])C(OC3OC(COS(=O)(=O)[O-])C(OC4OC(C(=O)[O-])C(OC5OC(COS(=O)(=O)[O-])C(OC6OC(C(=O)[O-])C(OC7OC(COS(=O)(=O)[O-])C(OC8OC(C(=O)[O-])C(OCc9ccccc9)C(OCc9ccccc9)C8OS(=O)(=O)[O-])C(OCc8ccccc8)C7NS(=O)(=O)[O-])C(OCc7ccccc7)C6OS(=O)(=O)[O-])C(OCc6ccccc6)C5NS(=O)(=O)[O-])C(OCc5ccccc5)C4OS(=O)(=O)[O-])C(OCc4ccccc4)C3NS(=O)(=O)[O-])C(OCc3ccccc3)C2OS(=O)(=O)[O-])C(OCc2ccccc2)C1NS(=O)(=O)[O-].[Na+].[Na+].[Na+].[Na+].[Na+].[Na+].[Na+].[Na+].[Na+].[Na+].[Na+].[Na+].[Na+].[Na+].[Na+].[Na+] (centres unmarked) [Compound 240] | 7.96 | 7.64 | inhibit FGF-2-induced fibroblast proliferation (starting in the micromolar range) | did not seem to be affected | inhibit PDGF-β proliferation (starting in the micromolar range) |
| C#CCCCOC1OC(COS(=O)(=O)[O-])C(OC2OC(C(=O)[O-])C(OC3OC(COS(=O)(=O)[O-])C(OC4OC(C(=O)[O-])C(OC5OC(COS(=O)(=O)[O-])C(OC6OC(C(=O)[O-])C(OCc7ccccc7)C(OCc7ccccc7)C6OS(=O)(=O)[O-])C(OCc6ccccc6)C5NS(=O)(=O)[O-])C(OCc5ccccc5)C4OS(=O)(=O)[O-])C(OCc4ccccc4)C3NS(=O)(=O)[O-])C(OCc3ccccc3)C2OS(=O)(=O)[O-])C(OCc2ccccc2)C1NS(=O)(=O)[O-].[Na+].[Na+].[Na+].[Na+].[Na+].[Na+].[Na+].[Na+].[Na+].[Na+].[Na+].[Na+] (centres unmarked) [Compound 239] | 7.07 | 7.37 | – | – | inhibit PDGF-β proliferation (starting in the micromolar range) |
